Experimental data published in US20170246137A1, “SULFESTROL FOR TREATING CANCER” (CHAMAELEO PHARMA BVBA, priority 2012, published 2017).
“And” between values parts separate entries of the source, which are not always exact repeats. Equal values may be shown once.

How the values were obtained:
[1] = Concentration of Mono-Sulfestrol in pooled plasma samples, LC-UV quantification; type: in vivo, male Sprague Dawley rats; settings: 10 mg/kg of the labelled compound, rat, pooled 0.5-8 hrs
Method: The concentration of Mono-Sulfestrol in the pooled samples described in Example 6 was quantified by LC-UV quantification.
A calibration standard solution was prepared as 10,000 ng/mL by adding an appropriate amount of Mono-Sulfestrol into 20% acetonitrile/0.1% formic acid in water. The peak area of the standard solution and the sample were measured with the wavelength set at 200 to 360 nm. The concentration levels of Mono-Sulfestrol were estimated using peak area (Area) of the standard and unknown samples and concentration of the standard (Concstd) by the following equation:
Areaunknown/Areastd=Concunknown/Concstd
Concunknown=Concstd·(Areaunknown/Areastd)

[2] = In vitro metabolism in human liver microsomes (STS and CYP); type: in vitro ADME; set-up: Clint: unit not given here; settings: for Clint / Contribution to metabolism / Half-life: 5 μM
Method: In vitro metabolism pathways of DES, Mono-Sulfestrol and Di-Sulfestrol in human liver microsomes were investigated.
Special emphasis was put on desulfatation by steroid sulfatase (STS) and oxidation by cytochrome P (CYP) metabolism. Liver microsomes (Celsis in vitro Technologies) were used at a concentration of 0.5 mg/ml in a volume of 600 μl phosphate buffer pH 7.4. Estrone-3-sulfate was used as positive control.
5 μM of each compound (test and control compound) was added to the liver microsomes and the mixture was incubated at 37° C. for 5, 10, 20, 30, 50, 90 and 120 minutes. After incubation, aliquots of 45 μl were taken which were subsequently quenched with 150 μl ice cold methanol. Aliquots were incubated ≧1 h at −20° C. for protein precipitation. After precipitation, samples were centrifuged and remaining supernatant was used for analysis with LC-MS/MS. Half life of the compounds, speed of metabolism or intrinsic clearance (Clint), and contribution to metabolism of CYP and STS metabolism were calculated based on the data obtained at each time point.

[3] = + NADPH + 667-Coumate (STS inactive, CYP active)
[4] = nothing added (STS active, CYP inactive)

Substance: 4-(4-(4-oxidophenyl)hex-3-en-3-yl)phenyl sulfate [Mono-Sulfestrol]
- Mono-Sulfestrol concentration in pooled plasma sample ([1]; intravenous): 630.0 ng/ml and 1.5 μM
- Mono-Sulfestrol concentration in pooled plasma sample ([1]; oral): 1150.6 ng/ml and 2.7 μM
- metabolism pathway in human liver microsomes (in words) [2]: metabolized by both STS and CYP enzymes
- Clint [2, 3]: 51
- Contribution to metabolism [2, 3]: 44%
- Half-life [2, 3]: 27 min
- Clint [2, 4]: 22
- Contribution to metabolism [2, 4]: 19%
- Half-life [2, 4]: 63 min
